Target: T1, M72 odorant receptor (olfr160) (Mus musculus, UniProt A1L3R1)
T1 construct: full-length native receptor in its own olfactory sensory neurons of gene-targeted M72-GFP mice (neonatal epithelium); GFP serves as cell marker
T1 sequence (A1L3R1 1-309): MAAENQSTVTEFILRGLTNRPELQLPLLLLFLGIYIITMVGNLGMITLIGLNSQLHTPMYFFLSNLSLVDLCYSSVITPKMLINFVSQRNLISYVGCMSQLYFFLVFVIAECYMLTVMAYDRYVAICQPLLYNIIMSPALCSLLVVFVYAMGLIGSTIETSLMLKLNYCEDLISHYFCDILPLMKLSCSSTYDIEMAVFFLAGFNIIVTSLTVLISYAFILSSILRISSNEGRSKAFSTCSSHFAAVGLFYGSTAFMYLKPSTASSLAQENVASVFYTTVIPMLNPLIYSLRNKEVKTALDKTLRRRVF
Assay: perforated patch clamp of dendritic knobs of M72-expressing OSNs, Hill fit
Format: cell-based
Conditions: 20-23 °C, pH 7.4; native OSNs; odorant from DMSO stock by pressure ejection; lower end of range, strongest ligand
Source text: perforated patch clamp of dendritic knobs of M72-expressing OSNs, Hill fit on M72 odorant receptor (olfr160) | 2HA is the strongest ligand yet identified for M72 | Normalized dose–response curves for seven M72 ligands fitted by the Hill equation

CC(=O)c1ccccc1O [2HA, 2-hydroxyacetophenone]
EC50: 30 nM
